# Measurements taken from PMC12048447, “PANTAX: a phase Ib clinical trial of the efflux pump inhibitor SCO-101 in combination with gemcitabine and nab-paclitaxel in non-resectable or metastatic pancreatic cancer” (Investigational New Drugs, 2025).
# Experiment: PANTAX phase Ib: safety, DLT and MTD of SCO-101 with Gem and Nab
# Type: in vivo
# Experimental: ORR, clinical benefit rate (CBR), median progression free survival (mPFS), and mOS were included as secondary end points.
# Patients were recruited at four centers, two in Denmark and two in Germany.
# Study treatment is illustrated in Fig. 1. […] Chemotherapy with Gem and Nab was given days 6, 13, and 20 in each cycle. […] During the first cycle, patients received treatment with chemotherapy at a dose corresponding to 80% of the recommended dose, i.e., 100 mg/m^2 Nab and 800 mg/m^2 Gem given as infusions over 30 min. […] The dose of chemotherapy was further adjusted to the patient´s tolerability in accordance with the chemotherapy-product monographs. Standard antiemetics were allowed as was the use of granulocyte colony-stimulating factor (G-CSF) in case of treatment-induced neutropenia.
# Toxicity was assessed at baseline and weekly at days 1, 6, 13, and 20 before each treatment.
# [1] = 50 mg SCO-101 (cohort 1, 3 patients) + Gem/Nab, any CTC-AE grade
# [2] = 50 mg SCO-101 (cohort 1, 3 patients) + Gem/Nab, grade ≥ 3
# [3] = 100 mg SCO-101 (cohort 2, 3 patients) + Gem/Nab, any CTC-AE grade
# [4] = 150 mg SCO-101 (cohort 3, 6 patients) + Gem/Nab, any CTC-AE grade
# [5] = 150 mg SCO-101 (cohort 3, 6 patients) + Gem/Nab, grade ≥ 3
# [6] = 200 mg SCO-101 (cohort 4, 6 patients) + Gem/Nab, any CTC-AE grade
# [7] = 250 mg SCO-101 (cohort 5, 4 patients) + Gem/Nab, any CTC-AE grade
# [8] = 250 mg SCO-101 (cohort 5, 4 patients) + Gem/Nab, grade ≥ 3
# [9] = 22 patients, all dose levels, with Gem and Nab
# [10] = sum of cohorts (22 patients) + Gem/Nab, any CTC-AE grade
# [11] = sum of cohorts (22 patients) + Gem/Nab, grade ≥ 3
smiles,measurement,setting,value
O=C(Nc1cc(C(F)(F)F)cc(C(F)(F)F)c1)Nc1ccc(Br)cc1-c1nnn[nH]1 [SCO-101],"Alopecia, patients with treatment-related AE",[1],2
same,"Athralgia, patients with treatment-related AE",[1],1
same,"Chills, patients with treatment-related AE",[1],1
same,"Diarrhea, patients with treatment-related AE",[1],3
same,"Dizziness, patients with treatment-related AE",[1],1
same,"Fatigue, patients with treatment-related AE",[1],3
same,"Headache, patients with treatment-related AE",[1],1
same,"Hypertension, patients with treatment-related AE",[1],1
same,"Nail disorder, patients with treatment-related AE",[1],1
same,"Nausea, patients with treatment-related AE",[1],3
same,"Pain, patients with treatment-related AE",[1],2
same,"Paraestesia, patients with treatment-related AE",[1],1
same,"Rash, patients with treatment-related AE",[1],2
same,"↑B-bilirubin, patients with treatment-related AE",[1],2
same,"↑B-lactate, patients with treatment-related AE",[1],1
same,"↓B-hemoglobin, patients with treatment-related AE",[1],2
same,"↓B-lymphocytes, patients with treatment-related AE",[1],3
same,"↓B-neutrophils, patients with treatment-related AE",[1],3
same,"↓B-thrombocytes, patients with treatment-related AE",[1],3
same,"Chills, patients with treatment-related AE",[2],1
same,"Hypertension, patients with treatment-related AE",[2],1
same,"↑B-lactate, patients with treatment-related AE",[2],1
same,"↓B-lymphocytes, patients with treatment-related AE",[2],2
same,"↓B-neutrophils, patients with treatment-related AE",[2],3
same,"Alopecia, patients with treatment-related AE",[3],2
same,"Candidiasis, patients with treatment-related AE",[3],1
same,"Diarrhea, patients with treatment-related AE",[3],3
same,"Dysgeusia, patients with treatment-related AE",[3],1
same,"Fatigue, patients with treatment-related AE",[3],1
same,"Nail disorder, patients with treatment-related AE",[3],1
same,"Nausea, patients with treatment-related AE",[3],3
same,"Oedema, patients with treatment-related AE",[3],1
same,"Paraestesia, patients with treatment-related AE",[3],2
same,"Rash, patients with treatment-related AE",[3],2
same,"Stomatitis, patients with treatment-related AE",[3],1
same,"↑B-bilirubin, patients with treatment-related AE",[3],1
same,"↓B-hemoglobin, patients with treatment-related AE",[3],1
same,"↓B-neutrophils, patients with treatment-related AE",[3],1
same,"Paraestesia, patients with treatment-related AE","100 mg SCO-101 (cohort 2, 3 patients) + Gem/Nab, grade ≥ 3",1
same,"Alopecia, patients with treatment-related AE",[4],2
same,"Athralgia, patients with treatment-related AE",[4],1
same,"Candidiasis, patients with treatment-related AE",[4],1
same,"Constipation, patients with treatment-related AE",[4],1
same,"Diarrhea, patients with treatment-related AE",[4],3
same,"Fatigue, patients with treatment-related AE",[4],2
same,"Headache, patients with treatment-related AE",[4],1
same,"Jaundice, patients with treatment-related AE",[4],1
same,"Nausea, patients with treatment-related AE",[4],2
same,"Pain, patients with treatment-related AE",[4],1
same,"Rash, patients with treatment-related AE",[4],1
same,"Stomatitis, patients with treatment-related AE",[4],2
same,"TTP, patients with treatment-related AE",[4],1
same,"Vomitting, patients with treatment-related AE",[4],2
same,"↑B-bilirubin, patients with treatment-related AE",[4],2
same,"↓B-hemoglobin, patients with treatment-related AE",[4],4
same,"↓B-neutrophils, patients with treatment-related AE",[4],1
same,"↓B-thrombocytes, patients with treatment-related AE",[4],1
same,"Fatigue, patients with treatment-related AE",[5],1
same,"Jaundice, patients with treatment-related AE",[5],1
same,"TTP, patients with treatment-related AE",[5],1
same,"↑B-bilirubin, patients with treatment-related AE",[5],1
same,"↓B-hemoglobin, patients with treatment-related AE",[5],2
same,blood bilirubin in the DLT case,"150 mg SCO-101, one patient",24 µmol/L
same,"Alopecia, patients with treatment-related AE",[6],4
same,"Constipation, patients with treatment-related AE",[6],1
same,"Diarrhea, patients with treatment-related AE",[6],2
same,"Dizziness, patients with treatment-related AE",[6],1
same,"Dysgeusia, patients with treatment-related AE",[6],1
same,"Fatigue, patients with treatment-related AE",[6],4
same,"Headache, patients with treatment-related AE",[6],1
same,"Jaundice, patients with treatment-related AE",[6],1
same,"Loss of appetite, patients with treatment-related AE",[6],2
same,"Nausea, patients with treatment-related AE",[6],3
same,"Oedema, patients with treatment-related AE",[6],1
same,"Pain, patients with treatment-related AE",[6],2
same,"Paraestesia, patients with treatment-related AE",[6],1
same,"Rash, patients with treatment-related AE",[6],2
same,"Stomatitis, patients with treatment-related AE",[6],4
same,"Vomitting, patients with treatment-related AE",[6],1
same,"↑B-bilirubin, patients with treatment-related AE",[6],4
same,"↓B-hemoglobin, patients with treatment-related AE",[6],3
same,"↓B-neutrophils, patients with treatment-related AE",[6],1
same,"↓B-thrombocytes, patients with treatment-related AE",[6],2
same,"↓B-neutrophils, patients with treatment-related AE","200 mg SCO-101 (cohort 4, 6 patients) + Gem/Nab, grade ≥ 3",1
same,"Candidiasis, patients with treatment-related AE",[7],1
same,"Constipation, patients with treatment-related AE",[7],1
same,"Dysgeusia, patients with treatment-related AE",[7],1
same,"Fatigue, patients with treatment-related AE",[7],2
same,"Jaundice, patients with treatment-related AE",[7],1
same,"Nausea, patients with treatment-related AE",[7],2
same,"Paraestesia, patients with treatment-related AE",[7],3
same,"Rash, patients with treatment-related AE",[7],1
same,"↑B-bilirubin, patients with treatment-related AE",[7],2
same,"↓B-hemoglobin, patients with treatment-related AE",[7],1
same,"↓B-neutrophils, patients with treatment-related AE",[7],1
same,"↓B-thrombocytes, patients with treatment-related AE",[7],2
same,"↓B-neutrophils, patients with treatment-related AE",[8],1
same,"↓B-thrombocytes, patients with treatment-related AE",[8],2
same,cases of clinical jaundice associated with bilirubin elevation,"22 patients, all dose levels",three
same,patients with SAEs (nineteen SAEs),"22 patients, all dose levels",11 patients
same,suspected unexpected serious adverse reactions (SUSARs),"22 patients, all dose levels",No suspected unexpected serious adverse reactions
same,cases with elevation of blood bilirubin,[9],55%
same,patients with a SCO-101-related AE grade 4 (thrombocytopenia),[9],9%
same,maximum tolerated dose (MTD),"SCO-101 daily for 6 days, bi-weekly schedule, with 80% dose of Gem and Nab, PDAC patients",200 mg
same,"dose-limiting toxicities (DLTs), first cycle","dose level 3, 150 mg SCO-101, six patients, with Gem and Nab",One
same,"dose-limiting toxicities (DLTs), first cycle","dose level 4, 200 mg SCO-101, with Gem and Nab",No DLTs
same,"dose-limiting toxicities (DLTs), first cycle","dose level 5, 250 mg SCO-101, thrombocytopenia AE grade 4, with Gem and Nab",two
same,time to resolution of bilirubin elevation,not accompanied by biochemical hepatotoxicity,≤ 1 week
same,SAEs deemed related to SCO-101,"of nineteen SAEs, transiently increased blood bilirubin AE grade 3 at 150 mg SCO-101",one
same,"Alopecia, patients with treatment-related AE",[10],10
same,"Athralgia, patients with treatment-related AE",[10],2
same,"Candidiasis, patients with treatment-related AE",[10],3
same,"Chills, patients with treatment-related AE",[10],1
same,"Constipation, patients with treatment-related AE",[10],3
same,"Diarrhea, patients with treatment-related AE",[10],11
same,"Dizziness, patients with treatment-related AE",[10],2
same,"Dysgeusia, patients with treatment-related AE",[10],3
same,"Fatigue, patients with treatment-related AE",[10],12
same,"Headache, patients with treatment-related AE",[10],3
same,"Hypertension, patients with treatment-related AE",[10],1
same,"Jaundice, patients with treatment-related AE",[10],3
same,"Loss of appetite, patients with treatment-related AE",[10],2
same,"Nail disorder, patients with treatment-related AE",[10],2
same,"Nausea, patients with treatment-related AE",[10],13
same,"Oedema, patients with treatment-related AE",[10],2
same,"Pain, patients with treatment-related AE",[10],5
same,"Paraestesia, patients with treatment-related AE",[10],7
same,"Rash, patients with treatment-related AE",[10],8
same,"Stomatitis, patients with treatment-related AE",[10],7
same,"TTP, patients with treatment-related AE",[10],1
same,"Vomitting, patients with treatment-related AE",[10],3
same,"↑B-lactate, patients with treatment-related AE",[10],1
same,"↓B-hemoglobin, patients with treatment-related AE",[10],11
same,"↓B-lymphocytes, patients with treatment-related AE",[10],3
same,"↓B-neutrophils, patients with treatment-related AE",[10],7
same,"↓B-thrombocytes, patients with treatment-related AE",[10],8
same,"Chills, patients with treatment-related AE",[11],1
same,"Fatigue, patients with treatment-related AE",[11],1
same,"Hypertension, patients with treatment-related AE",[11],1
same,"Jaundice, patients with treatment-related AE",[11],1
same,"Paraestesia, patients with treatment-related AE",[11],1
same,"TTP, patients with treatment-related AE",[11],1
same,"↑B-lactate, patients with treatment-related AE",[11],1
same,"↓B-hemoglobin, patients with treatment-related AE",[11],2
same,"↓B-lymphocytes, patients with treatment-related AE",[11],2
same,"↓B-neutrophils, patients with treatment-related AE",[11],5
same,"↓B-thrombocytes, patients with treatment-related AE",[11],2
